Experimental data from ChEMBL document CHEMBL2434901, “2-Phenylbenzofuran derivatives alleviate mitochondrial damage via the inhibition of β-amyloid aggregation” (Bioorg Med Chem Lett, 2013).
Activity calls are given as the source filed them. No cut-off for these calls is given here.

Experiments:
[1] = molecular target: Amyloid-beta precursor protein (Homo sapiens) (UniProt P05067); test: Inhibition of amyloid beta (unknown origin) fibril formation at 10 uM by thioflavin T fluorescent dye assay
Sequence of Amyloid-beta precursor protein (Homo sapiens) (P05067 whole entry): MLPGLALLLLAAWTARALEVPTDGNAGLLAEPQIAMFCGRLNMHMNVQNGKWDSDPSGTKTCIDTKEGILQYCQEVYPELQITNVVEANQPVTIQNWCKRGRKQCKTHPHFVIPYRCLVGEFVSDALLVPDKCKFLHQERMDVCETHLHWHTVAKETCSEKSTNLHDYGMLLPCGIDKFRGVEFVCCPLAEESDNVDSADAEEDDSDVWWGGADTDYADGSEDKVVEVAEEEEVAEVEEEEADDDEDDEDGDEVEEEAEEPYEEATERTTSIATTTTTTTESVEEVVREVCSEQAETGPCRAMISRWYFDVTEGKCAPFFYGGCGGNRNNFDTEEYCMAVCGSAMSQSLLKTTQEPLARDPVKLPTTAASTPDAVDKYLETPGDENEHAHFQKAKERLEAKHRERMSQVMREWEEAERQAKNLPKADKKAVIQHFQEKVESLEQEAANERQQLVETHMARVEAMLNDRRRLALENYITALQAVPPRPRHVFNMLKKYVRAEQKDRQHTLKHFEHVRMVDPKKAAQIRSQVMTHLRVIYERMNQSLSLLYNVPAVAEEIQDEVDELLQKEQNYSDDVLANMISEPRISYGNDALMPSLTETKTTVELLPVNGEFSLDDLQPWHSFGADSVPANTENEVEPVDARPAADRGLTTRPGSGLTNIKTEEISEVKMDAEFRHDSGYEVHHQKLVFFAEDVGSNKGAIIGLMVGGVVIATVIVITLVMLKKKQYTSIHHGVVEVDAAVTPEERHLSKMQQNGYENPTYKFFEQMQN

[2] = molecular target: Amyloid-beta precursor protein (Homo sapiens) (UniProt P05067); test: Inhibition of amyloid beta (1 to 42) (unknown origin) oligomerization at 10 uM after 2 hrs by SDS-PAGE analysis
[3] = test system: HT-22; test: Neuroprotective activity in mouse HT22 cells assessed as reduction of amyloid beta (1 to 42)-induced cytotoxicity by measuring green to red fluorescence ratio using JC1 staining at 10 uM after 10 mins relative to amyloid beta (1 to 42) treated control; type: functional
[4] = Cytotoxicity against mouse HT22 cells assessed as cell viability at 10 uM by MTT assay relative to control; type: cell-based, HT-22; details: read-out: Activity
[5] = test system: HT-22; test: Neuroprotective activity in mouse HT22 cells assessed as reduction of amyloid beta (1 to 42)-induced cytotoxicity by measuring green to red fluorescence ratio using JC1 staining at 10 uM after 10 mins relative to control; type: functional; details: HT-22, 10 min

Structure (SMILES)	inhibition [1]	further results
COc1cc(/C=C/C(=O)O)cc2cc(-c3ccccc3N(C)C)oc12	3.7%	–
COc1cc(/C=C/C(=O)O)cc2cc(-c3ccccc3F)oc12	7%	–
COc1cc(/C=C/C(=O)O)ccc1O	42.8%	inhibition [2]: Active
O=C(O)/C=C/c1cc(O)c2oc(-c3cccc(F)c3)cc2c1	14.3%	–
COc1cccc(-c2cc3cc(/C=C/C(=O)O)cc(OC)c3o2)c1	0%	–
COc1cc(-c2cc3cc(/C=C/C(=O)O)cc(OC)c3o2)ccc1O	28.4%	–
O=C(O)/C=C/c1cc(O)c2oc(-c3cccc(O)c3)cc2c1	0%	–
COc1cccc(-c2cc3cc(/C=C/C(=O)O)cc(O)c3o2)c1	0%	–
COc1ccc(-c2cc3cc(/C=C/C(=O)O)cc(OC)c3o2)cc1O	0%	–
COc1cc(-c2cc3cc(/C=C/C(=O)O)cc(OC)c3o2)ccc1N(C)C	50.2%	Ratio [3]: 104.2; inhibition [2]: Active; viability at 10 µM [4]: 104%
COc1ccc(-c2cc3cc(/C=C/C(=O)O)cc(O)c3o2)cc1O	43.3%	Ratio [3]: 122.1; inhibition at 10 µM [5]: 14.5%; viability at 10 µM [4]: 104%
COc1ccc(-c2cc3cc(/C=C/C(=O)O)cc(OC)c3o2)cc1N(C)C	11.7%	–
COc1cc(/C=C/C(=O)O)cc2cc(-c3ccccc3O)oc12	18.1%	–
COc1ccccc1-c1cc2cc(/C=C/C(=O)O)cc(OC)c2o1	0%	–
O=C(O)/C=C/c1cc(O)c2oc(-c3ccccc3F)cc2c1	19.7%	–
COc1cc(/C=C/C(=O)O)cc2cc(-c3cccc(O)c3)oc12	0%	–
COc1cc(/C=C/C(=O)O)cc2cc(-c3cccc(F)c3)oc12	0.4%	–
COc1ccccc1-c1cc2cc(/C=C/C(=O)O)cc(O)c2o1	0%	–
O=C(O)/C=C/c1cc(O)c2oc(-c3ccccc3O)cc2c1	28.3%	–
COc1cc(-c2cc3cc(/C=C/C(=O)O)cc(O)c3o2)ccc1O	42.6%	Ratio [3]: 115.9; viability at 10 µM [4]: 105%

Continued, in another order:

inhibition [1]	Structure (SMILES)	further results
26.7%	O=C(O)/C=C/c1cc(O)c2oc(-c3ccc(F)cc3)cc2c1	–
14.8%	COc1cc(/C=C/C(=O)O)cc2cc(-c3ccc(O)cc3)oc12	–
57.5%	COc1cc(/C=C/C(=O)O)cc2cc(-c3ccc(N(C)C)c(F)c3)oc12	Ratio [3]: 103.1; inhibition [2]: Active; viability at 10 µM [4]: 102%
22.4%	O=C(O)/C=C/c1cc(O)c2oc(-c3ccc(O)cc3)cc2c1	–
9.9%	COc1cc(/C=C/C(=O)O)cc2cc(-c3ccc(F)c(N(C)C)c3)oc12	–
45.9%	COc1cc(-c2cc3cc(/C=C/C(=O)O)cc(O)c3o2)ccc1N(C)C	Ratio [3]: 113.4; inhibition [2]: Active; inhibition at 10 µM [5]: 45%; viability at 10 µM [4]: 102%
57%	CN(C)c1ccc(-c2cc3cc(/C=C/C(=O)O)ccc3o2)cc1	–
2.7%	COc1cc(/C=C/C(=O)O)cc2cc(-c3ccc(F)cc3)oc12	–
70.6%	CN(C)c1ccc(-c2cc3cc(/C=C/C(=O)O)cc(O)c3o2)cc1	Ratio [3]: 123.2; inhibition [2]: Active; inhibition at 10 µM [5]: 73.1%; viability at 10 µM [4]: 100%
16.8%	O=C(O)/C=C/c1cc(O)c2oc(-c3ccccc3)cc2c1	–
32.5%	COc1ccc(-c2cc3cc(/C=C/C(=O)O)cc(O)c3o2)cc1N(C)C	–
49.8%	CN(C)c1ccc(-c2cc3cc(/C=C/C(=O)O)cc(O)c3o2)cc1F	Ratio [3]: 115.7; inhibition [2]: Active; inhibition at 10 µM [5]: 22.3%; viability at 10 µM [4]: 111%
16.8%	CN(C)c1cc(-c2cc3cc(/C=C/C(=O)O)cc(O)c3o2)ccc1F	–
12.5%	COc1ccc(-c2cc3cc(/C=C/C(=O)O)cc(OC)c3o2)cc1	–
34.8%	COc1cc(/C=C/C(=O)O)cc2cc(-c3cccc(N(C)C)c3)oc12	–
0%	COc1cc(/C=C/C(=O)O)cc2cc(-c3ccccc3)oc12	–
34.2%	COc1ccc(-c2cc3cc(/C=C/C(=O)O)cc(O)c3o2)cc1	–
72.6%	COc1cc(/C=C/C(=O)O)cc2cc(-c3ccc(N(C)C)cc3)oc12	Ratio [3]: 90.3; inhibition [2]: Active; viability at 10 µM [4]: 93.3%
33.3%	CN(C)c1cccc(-c2cc3cc(/C=C/C(=O)O)cc(O)c3o2)c1	–
8.1%	CN(C)c1ccccc1-c1cc2cc(/C=C/C(=O)O)cc(O)c2o1	–
